Data from patent US6977141B2, “Direct adsorption scintillation assay for measuring enzyme activity and assaying biochemical processes” (Vicuron Pharmaceuticals Inc., priority 1998, dated 2005).

Target: MurA (Escherichia coli, UniProt P0A749)
Assay: Direct adsorption scintillation assay (DASA) of the coupled MurA-MurB-MurC reaction, detection of enzyme inhibition
Format: biochemical
Description: A reaction mixture was prepared, of which 2 μl contains 38 ng MurA, 34 ng MurB, 34 ng MurC, 40 pmol ATP, 40 pmol UDP-NAcGlc, 40 pmol PEP, 40 pmol NADPH, 4 pmol L-[^3H]-alanine (72.3 Ci/mmol) in 50 mM Tris-HCl, pH 8, 20 mM MgCl2, 20 mM (NH4)2SO4, 1 mM DTT, 0.005% Brij-35. The mixture was incubated at room temperature for one hour. After one hour, 0.25 μl of the reaction mixture was transferred into each well of the poly-D-lysine coated FLASHPLATE™; each well contained 100 μl of 10 mM acetic acid, pH 3.0. The scintillation was counted using the TOPCOUNT™.
Enzyme mixtures (with 60 ng MurA, 8 ng MurB and 60 ng MurC present in each 2 μl sample) were prepared. The enzyme-phosphomycin mixture was pre-incubated at room temperature for 30 minutes. The substrates, as prepared in Example 2, were then added to the mixture to start the reaction. After 30 minutes of reaction at room temperature, 0.25 μl of the reaction mixture was transferred into each well of the poly-D-lysine coated FLASHPLATE™; each well contained 100 μl of 10 mM acetic acid. The scintillation was counted using the TOPCOUNT™.

Sequence of MurA (P0A749 whole entry): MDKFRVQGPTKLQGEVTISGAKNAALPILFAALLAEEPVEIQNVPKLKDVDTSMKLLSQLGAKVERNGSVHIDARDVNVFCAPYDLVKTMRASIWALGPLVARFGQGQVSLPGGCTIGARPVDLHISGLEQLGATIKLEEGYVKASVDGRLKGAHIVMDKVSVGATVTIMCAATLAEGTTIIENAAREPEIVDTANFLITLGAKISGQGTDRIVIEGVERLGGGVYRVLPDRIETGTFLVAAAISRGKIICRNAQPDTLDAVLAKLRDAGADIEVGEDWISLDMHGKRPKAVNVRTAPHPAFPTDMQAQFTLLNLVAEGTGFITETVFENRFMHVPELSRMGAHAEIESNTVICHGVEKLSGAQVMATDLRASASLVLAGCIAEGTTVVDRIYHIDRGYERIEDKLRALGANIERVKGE

For `C[C@@H]1O[C@@H]1P(=O)(O)O` [phosphomycin], the “scintillation count with increasing inhibitor concentration (FIG. 3)” value (60 ng MurA, 8 ng MurB, 60 ng MurC per 2 μl, 30 min pre-incubation at room temperature without UDP-NAcGlc, 30 min reaction, poly-D-lysine coated FLASHPLATE) was “decreased scintillation count” and the IC50 (pre-incubation carried out in the absence of UDP-NAc-Glu, qualitative statement, no number given) was “relatively high”.
